Test results published in patent publication EP0367124A1, “Penicillanic acid derivatives” (F. HOFFMANN-LA ROCHE AG, priority 1988, dated 1990).
Where a name gives a salt, the structure may show the parent alone.

Assays:
Experiment in all cases: In vitro MIC, Agar Well Diffusion Method
Format in all cases: cell-based
[1] = tested on: Staphylococcus aureus 3037B; conditions: Culture Staphylococcus aureus 3037B
Proteus vulgaris 100 = conditions: Culture Proteus vulgaris 100
Text: (§1) The in vitro activity of compounds of the present invention as measured by the Minimum Inhibitory Concentration (MIC) in micrograms per milliliter (mcg/ml), utilizing the Agar Well Diffusion Method, against a variety of Gram-negative microorganisms is illustrated in the following Table, in which the compounds evaluated were as follows: • Compound A: [2S-[2α,3α,5α,6β(R*)]]-6-[[[[(4-Ethyl-2,3-dioxo-1-piperazinyl)carbonyl]amino]phenylacetyl]amino]-3-methyl-3-[[(1-methyl-1H-tetrazole-5-yl)thio]methyl]-7-oxo-4-thia-1-azabicyclo[3.2.0]-heptane-2-carboxylic acid monosodium salt sesquihydrate • Compound B: [2S-(2α,3α,5α,6β)]-3-Methyl-3-[[(1-methyl-1H-tetrazol-5-yl)-thio]methyl-7-oxo-6-[(phenylacetyl)amino]-4-thia-1-azabicyclo[3.2.0] heptane-2-carboxylic acid monosodium salt • Compound C: [2S-[2α,3α,5α,6β(Z)]]-6-[[(2-Amino-4-thiazolyl)-(methoxyimino)-acetyl]amino]-3-methyl -3-[[(1-methyl-1H-tetrazol-5-yl)thio]methyl]-7-oxo-4-thia-1-azabicyclo[3.2.0]heptane-2-carboxylic acid monosodium salt • Compound D: [2S-(2α,3α,5α,6β)]-3-(Azidomethyl)-3-methyl-7-oxo-6-[(phenylacetyl)amino]-4-thia-1-azabicyclo-[3.2.0]heptane-2-carboxylic acid monosodium salt • Compound E: [2S-(2α,3α,5α,6β)]-1-[[2-carboxy-3-methyl-7-oxo-6-[(phenylacetyl)amino]-4-thia-1-azabicyclo-[3.2.0]hept-3-yl]methylpyridinium hydroxide inner salt • Compound F: [2S-(2α,3α,5α,6β)]-3-[[(2,5-Dihydro-6-hydroxy-2-methyl-5-oxo-1,2,4-triazine-3-yl)thio] -methyl]-3-methyl-7-oxo-6-[(phenylacetyl)amino]-4-thia-1-azabicyclo[3.2.0]heptane-2-carboxylic acid disodium salt • Compound G: [2S-(2α,3α,5α,6β)]-3-[(Acetylthio)-methyl]-3-methyl-7-oxo-6-[(phenylacetyl)amino]-4-thia-1-azabicyclo[3.2.0]heptane-2-carboxylic acid monosodium salt • Compound H: [2S-(2α,3α,5α,6β)]-3-[[[3,4-bis(Acetyloxy)benzoyl]oxy]methyl]-3-methyl-7-oxo-6-[(phenylacetyl)amino]-4-thia-1-azabicyclo[3.2.0]heptane-2-carboxylic acid monosodium salt

[2] = tested on: Micrococcus luteus PCI ATCC 9341; conditions: for MIC: ATCC9341, Culture Micrococcus luteus PCI ATCC 9341
Text: as §1

Escherichia coli 1269B = conditions: Culture Escherichia coli 1269B
Text: as §1

[3] = tested on: Bacillus subtilus 558 NRRL 558; conditions: for MIC: NRRL558, Culture Bacillus subtilus 558 NRRL 558
Text: as §1

[4] = tested on: Pseudomonas maltophilia 28978 ATCC 17445; conditions: Stenotrophomonas maltophilia, ATCC17445, Culture Pseudomonas maltophilia 28978 ATCC 17445
Text: as §1

[5] = tested on: Staphylococcus aureus 3647B; conditions: Culture Staphylococcus aureus 3647B
Text: as §1

[6] = tested on: Pseudomonas aeruginosa 56M; conditions: Culture Pseudomonas aeruginosa 56M
Text: as §1

Escherichia coli 2721B = conditions: Culture Escherichia coli 2721B
Text: as §1

Escherichia coli 3082B = conditions: Culture Escherichia coli 3082B
Text: as §1

Escherichia coli 2722B = conditions: Culture Escherichia coli 2722B
Text: as §1

Escherichia coli 3081B = conditions: Culture Escherichia coli 3081B
Text: as §1

[7] = tested on: Proteus vulgaris 101N ATCC 6380; conditions: for MIC: ATCC6380, Culture Proteus vulgaris 101N ATCC 6380
Text: as §1

[8] = tested on: Bacillus megaterium 164 ATCC 8011; conditions: for MIC: Priestia megaterium, ATCC8011, Culture Bacillus megaterium 164 ATCC 8011
Text: as §1

[9] = tested on: Staphylococcus aureus 82 ATCC 6538P; conditions: Culture Staphylococcus aureus 82 ATCC 6538P; for MIC: ATCC6538P
Text: as §1

[10] = tested on: Pseudomonas aeruginosa 56 ATCC 8079; conditions: for MIC: ATCC8079, Culture Pseudomonas aeruginosa 56 ATCC 8079
Text: as §1

[11] = tested on: Streptococcus faecium ATCC 8043; conditions: for MIC: Enterococcus faecium, ATCC8043, Culture Streptococcus faecium ATCC 8043
Text: as §1

[12] = tested on: Staphylococcus aureus 1059B; conditions: Culture Staphylococcus aureus 1059B

| MIC [1] | MIC (Proteus vulgaris 100) | MIC [2] | MIC (Escherichia coli 1269B) | MIC [3] | MIC [4] | MIC [5] | MIC [6] | MIC (Escherichia coli 2721B) | MIC (Escherichia coli 3082B) | MIC (Escherichia coli 2722B) | MIC (Escherichia coli 3081B) | MIC [7] | MIC [8] | MIC [9] | MIC [10] | MIC [11] | MIC [12] | Compound | further results |
| --- | --- | --- | --- | --- | --- | --- | --- | --- | --- | --- | --- | --- | --- | --- | --- | --- | --- | --- | --- |
| 500 µg/mL | 7.8 µg/mL | 0.49 µg/mL | 62.5 µg/mL | 0.98 µg/mL | 250 µg/mL | 500 µg/mL | 0.49 µg/mL | 3.9 µg/mL | 0.24 µg/mL | 0.12 µg/mL | 15.6 µg/mL | 0.98 µg/mL | 0.12 µg/mL | 0.98 µg/mL | 15.6 µg/mL | 31.3 µg/mL | 7.8 µg/mL | CCN1CCN(C(=O)NC(C(=O)NC2C(=O)N3C2SC(C)(CSc2nnnn2C)C3C(=O)O)c2ccccc2)C(=O)C1=O (stereo not drawn) [Compound A, [2S-[2α,3α,5α,6β(R*)]]-6-[[[[(4-Ethyl-2,3-dioxo-1-piperazinyl)carbonyl]amino]phenylacetyl]amino]-3-methyl-3-[[(1-methyl-1H-tetrazole-5-yl)thio]methyl]-7-oxo-4-thia-1-azabicyclo[3.2.0]-heptane-2-carboxylic acid monosodium salt sesquihydrate] |  |
| 125 µg/mL | > 125 µg/mL | 0.03 µg/mL | > 125 µg/mL | 0.03 µg/mL | > 125 µg/mL | 125 µg/mL | 0.98 µg/mL | 62.5 µg/mL | 31.3 µg/mL | 31.3 µg/mL | > 125 µg/mL | 15.6 µg/mL | 0.015 µg/mL | 0.03 µg/mL | 62.5 µg/mL | 7.8 µg/mL | 3.9 µg/mL | Cn1nnnc1SCC1(C)SC2C(NC(=O)Cc3ccccc3)C(=O)N2C1C(=O)O (stereo not drawn) [Compound B, [2S-(2α,3α,5α,6β)]-3-Methyl-3-[[(1-methyl-1H-tetrazol-5-yl)-thio]methyl-7-oxo-6-[(phenylacetyl)amino]-4-thia-1-azabicyclo[3.2.0]heptane-2-carboxylic acid monosodium salt] |  |
| 250 µg/mL | 250 µg/mL | 0.24 µg/mL | > 500 µg/mL | 0.49 µg/mL | > 500 µg/mL | 250 µg/mL | 0.98 µg/mL | 31.3 µg/mL | 1.95 µg/mL | 1.95 µg/mL | > 125 µg/mL | 31.3 µg/mL | 0.12 µg/mL | 0.49 µg/mL | 62.5 µg/mL | 125 µg/mL | 3.9 µg/mL | CON=C(C(=O)NC1C(=O)N2C1SC(C)(CSc1nnnn1C)C2C(=O)O)c1csc(N)n1 (stereo not drawn) [Compound C, [2S-[2α,3α,5α,6β(Z)]]-6-[[(2-Amino-4-thiazolyl)-(methoxyimino)-acetyl]amino]-3-methyl-3-[[(1-methyl-1H-tetrazol-5-yl)thio]methyl]-7-oxo-4-thia-1-azabicyclo[3.2.0]heptane-2-carboxylic acid monosodium salt] |  |
| 125 µg/mL | > 125 µg/mL | 0.03 µg/mL | > 125 µg/mL | 0.06 µg/mL | > 125 µg/mL | 125 µg/mL | 3.9 µg/mL | 62.5 µg/mL | 7.8 µg/mL | 15.6 µg/mL | 125 µg/mL | 15.6 µg/mL | 0.12 µg/mL | 0.03 µg/mL | > 125 µg/mL | 7.8 µg/mL | 7.8 µg/mL | CC1(CN=[N+]=[N-])SC2C(NC(=O)Cc3ccccc3)C(=O)N2C1C(=O)O (stereo not drawn) [Compound D, [2S-(2α,3α,5α,6β)]-3-(Azidomethyl)-3-methyl-7-oxo-6-[(phenylacetyl)amino]-4-thia-1-azabicyclo-[3.2.0]heptane-2-carboxylic acid monosodium salt] |  |
| 62.5 µg/mL | > 500 µg/mL | 1.95 µg/mL | 500 µg/mL | 0.24 µg/mL |  | 500 µg/mL | 3.9 µg/mL | 31.3 µg/mL | 31.3 µg/mL | 31.3 µg/mL | 125 µg/mL | 125 µg/mL | 0.49 µg/mL | 0.49 µg/mL | 125 µg/mL | 125 µg/mL | 15.6 µg/mL | CC1(C[n+]2ccccc2)SC2C(NC(=O)Cc3ccccc3)C(=O)N2C1C(=O)[O-] (stereo not drawn) [Compound E, [2S-(2α,3α,5α,6β)]-1-[[2-carboxy-3-methyl-7-oxo-6-[(phenylacetyl)amino]-4-thia-1-azabicyclo-[3.2.0]hept-3-yl]methylpyridinium hydroxideinner salt] |  |
|  |  |  |  |  |  |  |  |  |  |  |  |  |  |  |  |  |  | Cn1nc([O-])c(=O)nc1SC[C@@]1(C)S[C@@H]2[C@H](NC(=O)Cc3ccccc3)C(=O)N2[C@H]1C(=O)[O-].[Na+].[Na+] [Compound F, [2S-(2α,3α,5α,6β)]-3-[[(2,5-Dihydro-6-hydroxy-2-methyl-5-oxo-1,2,4-triazine-3-yl)thio] -methyl]-3-methyl-7-oxo-6-[(phenylacetyl)amino]-4-thia-1-azabicyclo[3.2.0]heptane-2-carboxylic acid disodium salt] | In Vitro MIC [1]: 500 µg/mL; In Vitro MIC (Proteus vulgaris 100): 250 µg/mL; In Vitro MIC ([2]; Culture Micrococcus luteus PCI ATCC 9341): 0.24 µg/mL; In Vitro MIC (Escherichia coli 1269B): 500 µg/mL; In Vitro MIC ([3]; Culture Bacillus subtilus 558 NRRL 558): 0.12 µg/mL; In Vitro MIC [5]: 500 µg/mL; In Vitro MIC [6]: 0.49 µg/mL; In Vitro MIC (Escherichia coli 2721B): 31.3 µg/mL; In Vitro MIC (Escherichia coli 3082B): 0.98 µg/mL; In Vitro MIC (Escherichia coli 2722B): 3.9 µg/mL; In Vitro MIC (Escherichia coli 3081B): 125 µg/mL; In Vitro MIC ([7]; Culture Proteus vulgaris 101N ATCC 6380): 7.8 µg/mL; In Vitro MIC ([8]; Culture Bacillus megaterium 164 ATCC 8011): 0.12 µg/mL; In Vitro MIC [9]: 0.24 µg/mL; In Vitro MIC ([10]; Culture Pseudomonas aeruginosa 56 ATCC 8079): 31.5 µg/mL; In Vitro MIC ([11]; Culture Streptococcus faecium ATCC 8043): 62.5 µg/mL; In Vitro MIC [12]: 0.24 µg/mL |
| 250 µg/mL | > 500 µg/mL | 0.06 µg/mL |  | 0.03 µg/mL | > 500 µg/mL | 250 µg/mL | 0.98 µg/mL | 62.5 µg/mL | 1.95 µg/mL | 7.8 µg/mL | 500 µg/mL | 31.3 µg/mL |  | 0.03 µg/mL | 125 µg/mL | 0.98 µg/mL | 0.98 µg/mL | CC(=O)SCC1(C)SC2C(NC(=O)Cc3ccccc3)C(=O)N2C1C(=O)O (stereo not drawn) [Compound G, [2S-(2α,3α,5α,6β)]-3-[(Acetylthio)methyl]-3-methyl-7-oxo-6-[(phenylacetyl)amino]-4-thia-1-azabicyclo[3.2.0]heptane-2-carboxylic acid monosodium salt] |  |
| 125 µg/mL | > 500 µg/mL | 0.12 µg/mL |  | 0.12 µg/mL | 31.5 µg/mL | 500 µg/mL | 1.95 µg/mL | 500 µg/mL | 15.6 µg/mL | 62.5 µg/mL | > 500 µg/mL | 62.5 µg/mL |  | 0.12 µg/mL | 31.5 µg/mL | 7.8 µg/mL | 7.8 µg/mL | CC(=O)Oc1ccc(C(=O)OCC2(C)SC3C(NC(=O)Cc4ccccc4)C(=O)N3C2C(=O)O)cc1OC(C)=O (stereo not drawn) [Compound H, [2S-(2α,3α,5α,6β)]-3-[[[3,4-bis(Acetyloxy)benzoyl]oxy]methyl]-3-methyl-7-oxo-6-[(phenylacetyl)amino]-4-thia-1-azabicyclo[3.2.0]heptane-2-carboxylic acid monosodium salt] |  |
